According to US20080275226A1, “Medical Use of Paeoniflorin” (priority 2004, published 2008):
Entries after “also recorded” stand apart in the source; their conditions may differ.

How the values were obtained:
permanent MCAO model = assay: Permanent focal cerebral ischemia model (permanent MCAO); type: in vivo, rat
A1R [1] = target: T1, A1R (Rattus norvegicus, UniProt P25099); assay: Competitive binding with [3H]-NECA, high-affinity site (two-site fit), rat cerebral cortex synaptic membranes
T1 construct: Synaptic membranes of rat cerebral cortex are employed in the assay; from tissue; host or cells: rat cerebral cortex synaptic membranes
T1 sequence (P25099 1-326): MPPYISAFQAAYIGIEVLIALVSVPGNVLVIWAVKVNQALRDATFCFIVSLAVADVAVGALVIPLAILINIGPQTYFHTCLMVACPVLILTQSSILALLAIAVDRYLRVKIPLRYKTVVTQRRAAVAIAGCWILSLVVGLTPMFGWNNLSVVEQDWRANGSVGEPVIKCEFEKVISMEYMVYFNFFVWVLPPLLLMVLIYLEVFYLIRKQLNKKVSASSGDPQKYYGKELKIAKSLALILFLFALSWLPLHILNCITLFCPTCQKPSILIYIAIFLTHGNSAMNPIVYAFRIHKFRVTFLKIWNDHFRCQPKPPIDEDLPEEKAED
Method: (§1) Synaptic membranes of rat cerebral cortex are employed in the assay. After decapitation of the rat, cerebral cortex is separated and homogenized sufficiently in 1:15 (W/V) sucrose solution, after centrifuged, the supernatant is taken and centrifuged again. After discarding the supernatant, the sediment is resuspended in 1:30 (W/V) Tris-HCl buffer (50 mM, PH 7.4), homogenized, washed and then centrifuged, after repeating the wash process 3 times, the sediment is resuspended in 1:5 (W/V) Tris-HCl buffer (50 mM, PH 7.4) again and subpakaged, stored at −80° C. The protein concentration is measured by Bradford method (Bradford M M. A rapid and sensitive method for the quantitation of microgram quantities of proteins utilizing the principle of protein-dye binding. Anal Biochem. 1976; 72: 248-254.). All the above procedures are operated at 4° C.
(§2) The above model is used to evaluate the competitive binding of paeoniflorin with the A1R and A2aR receptor mixed agonist [^3H]-ethyl amide adenosine ([3H]-NECA) and the A1R receptor selective agonist [3H]-CCPA.
(§3) After decapitation of the rat, cerebral cortex was separated immediately, and put it into ice-cold physiological saline. […] The protein concentration was measured by Bradford method. […]

transient MCAO rats = assay: Transient focal cerebral ischemia model (transient MCAO); type: in vivo; conditions: transient MCAO rat
A1R [2] = target: T1, A1R; assay: Competitive binding with [3H]-CCPA, rat cerebral cortex synaptic membranes; conditions: 0.2 nmol/L [3H]-CCPA; rat cerebral cortex synaptic membrane
Method: as §1, §2, §3

[3] = tested on: mouse PD model induced by MPTP; assay: MPTP-induced mouse PD model (pole test, TH staining); type: in vivo; conditions: 5 mg·kg^−1 s.c. for 11 days, C57B1/6J mice
Method: The mouse PD model induced by 1-methyl-4-phenyl-1,2,3,6-tetrahydro-pyridine (MPTP) is used to test the effect of paeoniflorin on the ability of climbing pole and the deletion of dopamine neuron of substantia nigra of midbrain in the PD model mouse. Male C57B1/6J mice of 20-25 g are used. The climbing pole time of the mice are measured before experiment. The mice are divided into 5 groups according to the climbing pole time and there are 8 mice in each group. Low dose and middle dose paeoniflorin are administered by subcutaneous injection for 11 days continuously, and 1-methyl-4-phenyl-1,2,3,6-tetrahydro-pyridine (MPTP) is injected intraperitoneally (ip) at 2 hours intervals for 4 times on day 8 of the experiment to induce mouse PD model.
The motor activity of the mice are measured by pole test, the mice are put on to the vertical coarse pole of 55 cm long and 8 mm diameter with head downward, and the time that the mice go downward to all the limbs contact the ground is measured (Hamaue N, Minami M, Terado M, Hirafuji M, Endo T, Machida M, Hiroshige T, Ogata A, Tashiro K, Saito H, Parvez S H. Comparative study of the effects of isatin, an endogenous MAO-inhibitor, and selegiline on bradykinesia and dopamine levels in a rat model of Parkinson's disease induced by the Japanese encephalitis virus. Neurotoxicology. 2004 January; 25(1-2):205-13.).
Male C57B1/6J mice of 20-25 g were used. The climbing pole time of the mice was measured before experiment. The mice were divided into 5 groups according to the climbing pole time and there were 8 mice in each group. Paeoniflorin (2.5 mg kg^−1, 5 mg kg^−1) were administered by subcutaneous injection for 11 days continuously, and 1-methyl-4-phenyl-1,2,3,6-tetrahydro-pyridine (MPTP) was injected intraperitoneally (ip) at 2 hours intervals for 4 times on day 8 of the experiment to induce mouse PD model. The administration schedule was as follows:
The mice were put on to the vertical coarse pole of 55 cm long and 8 mm diameter with head downward, and the time that the mice went downward to all the limbs contacted the ground was measured.
The heart was perfused with 4% paraformaldehyde to be pro-fixed, and then the cerebrum was taken out, and post-fixed with 4% formaldehyde solution for 1 week. Coronal sections were performed continuously (section thick […]). Tyrosine hydroxylase (TH) was used as the specific marker of dopamine neuron. The primary antibody was monoclonal mouse TH antibody (1:1000, Sigma), the second antibody was Alexa fluor 488 fluorescence labeled goat anti-mouse (1:1000, Molecular Probes). Photographs were taken under fluorescence microscope (Olympus DP70), and TH positive cells of substantia nigra were counted.

[4] = Blood pressure and heart rate of conscious rat (tail sleeve sensor); type: in vivo; conditions: 10, 40, 160 mg kg^−1 i.v., 5 min to 2 hr after administration
Method: The conscious rats are used as research subject, sensors of tail sleeve are used to transduce the pressure pulse to phototriodes and convert it into corresponding blood pressure and heart rate values. When the rats calm down, their blood pressure and heart rate values are recorded as the base values. Then, physiological saline, various doses of paeoniflorin and reserpine are injected through caudal vein respectively.
The changes of blood pressure and heart rate before the administration (0 min) and after the administration (5 min to 2 hr) are recorded.
The conscious rats were used as research subject, sensor of tail sleeve were used to transduce the pressure pulse to phototriodes and converted it into corresponding blood pressure value and heart rate values. When the rats calmed down, their blood pressure and heart rate value were recorded as the base values. Then, physiological saline, paeoniflorin (10, 40, 160 mg kg^−1) and reserpine were injected through caudal vein respectively.
The changes of blood pressure and heart rate before the administration (0 min) and after the administration (5 min to 2 hr) were recorded.

A2AR = target: T2, A2AR (Rattus norvegicus, UniProt P30543); assay: Competitive binding with [3H]-NECA, low-affinity site (two-site fit), rat cerebral cortex synaptic membranes; conditions: two-site competition fit, site 2; 25 nmol/L [3H]-NECA; rat cerebral cortex synaptic membrane; read-out: EC502, competitive binding with [3H]-NECA
T2 construct: Synaptic membranes of rat cerebral cortex are employed in the assay; from tissue; host or cells: rat cerebral cortex synaptic membranes
T2 sequence (P30543 whole entry): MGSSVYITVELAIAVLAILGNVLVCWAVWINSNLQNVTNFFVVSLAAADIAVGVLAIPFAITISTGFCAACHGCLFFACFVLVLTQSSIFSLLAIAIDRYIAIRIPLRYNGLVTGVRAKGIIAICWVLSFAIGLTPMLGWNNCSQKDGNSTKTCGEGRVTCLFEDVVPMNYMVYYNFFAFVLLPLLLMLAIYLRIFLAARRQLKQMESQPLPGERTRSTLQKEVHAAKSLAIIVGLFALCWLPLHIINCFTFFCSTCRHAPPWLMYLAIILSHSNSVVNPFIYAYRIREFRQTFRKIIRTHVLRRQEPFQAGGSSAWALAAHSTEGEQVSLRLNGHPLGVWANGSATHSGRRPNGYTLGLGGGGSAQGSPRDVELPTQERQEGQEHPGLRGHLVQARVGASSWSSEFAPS
Method: as §1, §2, §3

Molecule	effect of DPCPX on the protection by paeoniflorin (permanent MCAO model; DPCPX s.c. 15 min before ischemia + paeoniflorin 10 mg·kg^−1 s.c.)	selectivity EC502/EC501 (A1R [1]; A1R over A2AR, [3H]-NECA two-site fit) [times]	EC50 (A1R [1]; two-site competition fit, site 1, 25 nmol/L [3H]-NECA, rat cerebral cortex synaptic membrane, read-out: EC501, competitive binding with [3H]-NECA) [nM]	neurological symptom (neurological defect score) (transient MCAO rats; 5 mg·kg^−1 s.c. at 15 min and 6 h after ischemia)	injury of cerebral subcortical nucleus and cerebral cortex caused by ischemia (transient MCAO rats; 5 mg·kg^−1 s.c., TTC staining)	EC50 (A1R [2]) [nM]	deletion of dopaminergic neuron induced by MPTP (TH staining, substantia nigra) [3]	motor dysfunction (bradykinesia) caused by MPTP, pole test [3]	deletion of dopaminergic neuron induced by MPTP (TH staining, substantia nigra) ([3]; listed as Paeoniflorin)	motor dysfunction (bradykinesia) caused by MPTP, pole test ([3]; listed as Paeoniflorin)	blood pressure of conscious rats [4]	heart rate of conscious rats [4]	blood pressure of conscious rats ([4]; listed as Paeoniflorin)	heart rate of conscious rats ([4]; listed as Paeoniflorin)	injury of cerebral subcortical nucleus and cerebral cortex caused by ischemia, dose dependence (permanent MCAO model; 2.5, 5, 10 mg·kg^−1 s.c., TTC staining)	EC50 (A2AR) [nM]
CCCn1c(=O)c2[nH]c(C3CCCC3)nc2n(CCC)c1=O [DPCPX]	this effect can be antagonized; also recorded: block the protection of paeoniflorin; also recorded: this effect could be inhibited															
β-D-Glucopyranoside,56-[(benzoyloxy)methyl]tetrahydro-5-hydroxy-2-methyl-2,5-methano-1H-3,4-dioxacyclobuta[cd]Pentalen-1a(2H)-yl,[lar-claα,2β,3aα,5aα,5bα]] [paeoniflorin]		360	13.9	improves the neurological symptom; also recorded: obviously improved the neurological symptom	significantly decreases the injury; also recorded: significantly decreased the defect	19.8	antagonize the deletion of dopaminergic neuron	significantly improve the motor dysfunction	significantly antagonized	significantly antagonized	does not affect	does not affect	did not affect	did not affect	decreases the injury of cerebral subcortical nucleus and cerebral cortex caused by ischemia dose-dependently; also recorded: dose-dependently decreased the defect	5000
